Source: patent US12551463B2, “Dosing of a Bruton's tyrosine kinase inhibitor” (Loxo Oncology, Inc., priority 2019, dated 2026)
pIC50: −log10 of the molar value. Where two headings read alike, the source gives them in different places.

Target: T1, BTK wild type (Homo sapiens, UniProt Q06187)
T1 construct: expressed in transfected cells
Test: BTK Y223 autophosphorylation in HEK293 cells expressing BTK wild type
Type: cell-based
Details: for IC90: HEK293, wild type BTK
Method: HEK293 cell lines stably expressing BTK wild type and the mutant form C481S are generated using standard transfection methods. For assessment of cellular inhibition potency, cells are grown in DMEM+10% FBS+1 μg/mL puromycin (complete growth media) at 37° C. in a C02 incubator. Cells are harvested according to standard protocols using TrypLE (Gibco #12604-013), counted, resuspended in complete growth media, and added to 6 well assay plates at […] in 2 mL. Plates are incubated overnight at 37° C. with 5% C02. The following day, cells are treated for 2 hours with BTK-I, prepared as a 6-point dose curve, 1:3 dilution series with final concentrations starting at a maximum concentration of 300 nM and a constant DMSO concentration of 0.5% (v/v). Control wells contain 0.5% (v/v) DMSO alone (no inhibition control). All samples are tested in triplicate. Following compound incubation, growth medium is discarded, cells are washed with DPBS (1×) (Gibco #14190-144) and lysed in 1 mL of CelLytic™ M (Sigma #C2978) containing 1× Halt phosphatase and protease inhibitor cocktails (Pierce #78442). Plates are placed on ice for 1 hour with gentle agitation and stored at −80° C. overnight. The next day, cell lysates are placed in 1.5 mL tubes and cleared by centrifugation at 16,000×g for 10 minutes at 4° C. Supernatants are quantified by BCA (Pierce #23225) and stored at −80° C. Samples are analyzed by Simple Western (Protein Simple) with anti-phospho-BTK (Y223) (Cell signaling technologies (cst) #5082) and anti-BTK (cst #8547). β-actin is the used as a loading control and detected by regular Western blot with an anti-β-actin antibody (cst #4970). Simple Western results are analyzed with Compass software (Protein Simple). BTK Y223 phosphorylation signal is normalized to total BTK, and IC50 values are calculated using a 4-parameter fit in GraphPad Prism 7.04 software.

T1 sequence (Q06187 whole entry): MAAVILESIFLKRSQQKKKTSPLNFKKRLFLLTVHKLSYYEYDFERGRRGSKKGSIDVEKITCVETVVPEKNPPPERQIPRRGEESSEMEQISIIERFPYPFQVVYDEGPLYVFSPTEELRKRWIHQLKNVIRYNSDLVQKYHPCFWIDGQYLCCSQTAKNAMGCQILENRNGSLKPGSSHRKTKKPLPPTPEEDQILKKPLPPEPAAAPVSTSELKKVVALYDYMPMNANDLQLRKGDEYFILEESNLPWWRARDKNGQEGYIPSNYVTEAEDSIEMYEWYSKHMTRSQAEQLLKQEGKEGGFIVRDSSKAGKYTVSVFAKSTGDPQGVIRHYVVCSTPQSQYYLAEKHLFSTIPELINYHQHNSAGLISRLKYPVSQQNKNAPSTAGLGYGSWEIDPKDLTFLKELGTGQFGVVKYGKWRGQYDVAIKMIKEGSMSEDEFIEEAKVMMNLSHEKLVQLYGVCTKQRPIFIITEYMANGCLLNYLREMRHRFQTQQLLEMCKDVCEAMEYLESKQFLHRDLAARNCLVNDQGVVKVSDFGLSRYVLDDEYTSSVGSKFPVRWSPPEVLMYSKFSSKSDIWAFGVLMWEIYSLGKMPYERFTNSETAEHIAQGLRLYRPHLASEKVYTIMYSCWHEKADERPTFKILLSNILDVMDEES

COc1ccc(F)cc1C(=O)NCc1ccc(-c2nn([C@@H](C)C(F)(F)F)c(N)c2C(N)=O)cc1 [BTK-I, (S)-5-amino-3-(4-((5-fluoro-2-methoxybenzamido)methyl)phenyl)-1-(1,1,1-trifluoropropane-2-yl)-1H-pyrazole-4-carboxamide]
IC90 (read-out: IC90): 77.4 nM | IC90 (read-out: IC90 translated to total drug in human plasma): ~0.806 µg/mL | pIC50 (expressed as plasma concentration, read-out: IC50, inhibition of BTK in vitro): 6.72
